Mortality and inhibition data for three molecules are collected here from ChEMBL document CHEMBL3046111, “Synthesis and insecticidal activity of 1,2,4-oxadiazole and 1,2,4-thiadiazole derivatives” (2011).

The test system of experiment [1] is Nilaparvata lugens. Briefly: Insecticidal activity against imidacloprid-resistant Nilaparvata lugens (brown planthopper) fourth-instar larvae reared on compound pre-treated rice seedlings assessed as insect mortality at 0.1 ppm measured after 7 days. The experiment is classed as functional.
In experiment [2] the test system is Nilaparvata lugens. The experiment is described as follows: Insecticidal activity against imidacloprid-resistant Nilaparvata lugens (brown plant hopper) fourth-instar larvae reared on compound pre-treated rice seedlings assessed as insect mortality at 1 ppm measured after 7 days. The experiment is classed as functional.
In experiment [3] the test system is Nilaparvata lugens. The experiment is described as follows: Insecticidal activity against imidacloprid-resistant Nilaparvata lugens (brown planthopper) fourth-instar larvae reared on compound pre-treated rice seedlings assessed as insect mortality at 10 ppm measured after 7 days. The experiment is classed as functional.
The test system of experiment [4] is Nilaparvata lugens. Briefly: Insecticidal activity against imidacloprid-sensitive Nilaparvata lugens (brown planthopper) fourth-instar larvae reared on compound pre-treated rice seedlings assessed as insect mortality at 0.1 ppm measured after 7 days. The experiment is classed as functional.
The subject of experiment [5] is Nilaparvata lugens. The experiment is described as follows: Insecticidal activity against imidacloprid-sensitive Nilaparvata lugens (brown planthopper) fourth-instar larvae reared on compound pre-treated rice seedlings assessed as insect mortality at 1 ppm measured after 7 days. The experiment is classed as functional.
Experiment [6] has as its target T1, Muscarinic acetylcholine receptor DM1 (Drosophila melanogaster) (UniProt P16395).
T1 sequence (whole entry): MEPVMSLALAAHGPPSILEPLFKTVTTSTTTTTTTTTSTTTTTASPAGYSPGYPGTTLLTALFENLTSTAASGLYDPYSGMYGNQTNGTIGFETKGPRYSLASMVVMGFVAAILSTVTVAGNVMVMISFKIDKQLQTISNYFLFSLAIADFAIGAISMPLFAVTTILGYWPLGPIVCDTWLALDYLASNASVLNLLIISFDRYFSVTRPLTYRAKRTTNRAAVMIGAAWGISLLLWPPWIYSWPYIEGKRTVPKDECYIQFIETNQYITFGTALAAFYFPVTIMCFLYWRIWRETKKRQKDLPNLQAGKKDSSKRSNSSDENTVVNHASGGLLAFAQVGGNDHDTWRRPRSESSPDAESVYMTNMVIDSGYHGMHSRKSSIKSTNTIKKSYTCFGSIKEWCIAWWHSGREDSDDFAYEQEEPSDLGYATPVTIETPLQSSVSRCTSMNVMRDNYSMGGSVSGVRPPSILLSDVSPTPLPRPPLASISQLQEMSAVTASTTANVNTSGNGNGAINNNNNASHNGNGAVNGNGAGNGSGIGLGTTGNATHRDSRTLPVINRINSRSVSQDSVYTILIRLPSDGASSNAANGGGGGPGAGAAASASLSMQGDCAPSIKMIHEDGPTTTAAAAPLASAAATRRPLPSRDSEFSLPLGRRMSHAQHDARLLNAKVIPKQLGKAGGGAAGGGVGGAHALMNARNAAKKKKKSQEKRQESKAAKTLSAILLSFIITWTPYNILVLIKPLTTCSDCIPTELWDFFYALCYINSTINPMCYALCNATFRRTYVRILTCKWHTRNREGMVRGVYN
The experiment is described as follows: Inhibition of [3H]NMS from mAChR in Musca domestica (house fly) nerve-cord membranes at […] incubated at 21 degC for 60 min.

Experiment [7] concerns Nilaparvata lugens. Briefly: Insecticidal activity against imidacloprid-resistant Nilaparvata lugens (brown planthopper) fourth-instar larvae reared on compound pre-treated rice seedlings assessed as insect mortality at 100 ppm measured after 7 days. The experiment is classed as functional.
The subject of the next experiment is Aphis craccivora. The experiment is described as follows: Insecticidal activity against Aphis craccivora (cowpea aphid) apterous adults reared on broad bean seedlings followed by compound spraying at 200 ppm assessed as insect mortality measured after 4 days. The experiment is classed as functional. The note with it: 96 h.
Experiment [8] has as its system Nephotettix cincticeps. The experiment is described as follows: Insecticidal activity against Nephotettix cincticeps (green rice leafhopper) fourth instar larvae reared on compound pre-treated rice seedlings assessed as insect mortality at 10 ppm measured after 7 days. The experiment is classed as functional.
In experiment [9] the test system is Nephotettix cincticeps. Briefly: Insecticidal activity against Nephotettix cincticeps (green rice leafhopper) fourth instar larvae reared on compound pre-treated rice seedlings assessed as insect mortality at 100 ppm measured after 7 days. The experiment is classed as functional.
In experiment [10] the test system is Nilaparvata lugens. Briefly: Insecticidal activity against imidacloprid-sensitive Nilaparvata lugens (brown planthopper) fourth-instar larvae reared on compound pre-treated rice seedlings assessed as insect mortality at 10 ppm measured after 7 days. The experiment is classed as functional.
Experiment [11] concerns Nilaparvata lugens. Briefly: Insecticidal activity against imidacloprid-sensitive Nilaparvata lugens (brown planthopper) fourth-instar larvae reared on compound pre-treated rice seedlings assessed as insect mortality at 100 ppm measured after 7 days. The experiment is classed as functional.
Experiment [12] deals with Nilaparvata lugens. Briefly: Insecticidal activity against imidacloprid-sensitive Nilaparvata lugens (brown planthopper) fourth-instar larvae reared on compound pre-treated rice seedlings assessed as insect mortality at 200 ppm measured after 7 days. The experiment is classed as functional.
The target in experiment [13] is T2, Nicotinic acetylcholine receptor alpha 5 subunit (Musca domestica) (UniProt A9XFY4).
T2 sequence (whole entry): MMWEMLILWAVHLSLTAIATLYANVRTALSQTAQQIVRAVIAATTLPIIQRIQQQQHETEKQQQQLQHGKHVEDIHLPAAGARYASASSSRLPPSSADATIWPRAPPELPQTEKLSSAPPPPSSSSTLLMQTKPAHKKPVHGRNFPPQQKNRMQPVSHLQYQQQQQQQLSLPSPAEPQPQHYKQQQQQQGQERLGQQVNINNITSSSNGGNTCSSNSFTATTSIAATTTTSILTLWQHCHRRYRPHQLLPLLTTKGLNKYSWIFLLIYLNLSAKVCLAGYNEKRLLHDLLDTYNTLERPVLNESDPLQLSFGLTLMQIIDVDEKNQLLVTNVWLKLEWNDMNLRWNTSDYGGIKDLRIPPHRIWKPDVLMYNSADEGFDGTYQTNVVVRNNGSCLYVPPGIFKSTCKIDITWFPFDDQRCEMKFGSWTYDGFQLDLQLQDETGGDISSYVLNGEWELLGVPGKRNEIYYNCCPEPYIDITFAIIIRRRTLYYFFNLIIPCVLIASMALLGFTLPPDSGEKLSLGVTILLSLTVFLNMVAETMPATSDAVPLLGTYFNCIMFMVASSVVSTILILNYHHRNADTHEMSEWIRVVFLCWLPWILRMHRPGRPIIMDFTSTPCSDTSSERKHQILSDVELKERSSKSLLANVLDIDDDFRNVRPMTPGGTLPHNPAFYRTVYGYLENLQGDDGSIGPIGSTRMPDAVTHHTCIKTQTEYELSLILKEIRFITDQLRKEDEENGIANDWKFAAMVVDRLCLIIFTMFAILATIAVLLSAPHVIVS
Briefly: Inhibition of [3H]EPI from nicotinic acetylcholine receptor in Musca domestica (house fly) nerve-cord membranes at […] incubated at 21 degC for 60 min.

What is called mortality is the share of the test organisms that died. As a reminder, the inhibition is the relative decrease from the control value, in per cent. Lower therefore signals a weak effect.

In the case of `O=[N+]([O-])/N=C1\NCCN1Cc1ccc(Cl)nc1` [IMIDACLOPRID], the mortality at 0.1 ppm came to 50% in the experiment on Nilaparvata lugens [1] and 90% in the experiment on Nilaparvata lugens [4]. The figures for the mortality at 1 ppm with Nilaparvata lugens [2] and in the experiment on Nilaparvata lugens [5] were 80% and 100%, respectively. In addition, the mortality at 10 ppm with Nilaparvata lugens [3] amounted to 100%.
`Cc1nsc(-c2cccnc2)n1`: the inhibition stood at 12% in experiment [6] and 4% in experiment [13]. Further, the mortality at 1 ppm with Nilaparvata lugens [2] came out at 50%; in the experiment with Nilaparvata lugens [5], 60%. For the same molecule, the mortality at 10 ppm in the experiment with Nilaparvata lugens [3] turned out to be 90%; in the experiment on Nephotettix cincticeps [8], 30%; in the experiment on Nilaparvata lugens [10], 80%. For the same molecule, the mortality at 100 ppm amounted to 100% in the experiment on Nilaparvata lugens [7], 80% in the experiment with Nephotettix cincticeps [9] and 100% in the experiment on Nilaparvata lugens [11]. Also, the mortality at 200 ppm with Aphis craccivora and in the experiment with Nilaparvata lugens [12] was 100% in each case.
As to `Cc1nsc(C2=CCCN(C)C2)n1`, the inhibition in experiment [6] worked out at 62%; in [13], 6%. Further, the mortality at 1 ppm in the experiment with Nilaparvata lugens [2] is 50%; in the experiment with Nilaparvata lugens [5], 30%. Moreover, the results for the mortality at 10 ppm in the experiment with Nilaparvata lugens [3], in the experiment on Nephotettix cincticeps [8] and in the experiment with Nilaparvata lugens [10] were 90%, 0% and 80%, respectively. Besides, the mortality at 100 ppm with Nilaparvata lugens [7] worked out at 100%; with Nephotettix cincticeps [9] it was 30%; with Nilaparvata lugens [11], 100%. Also, the mortality at 200 ppm in the experiment on Aphis craccivora turned out to be 40%; with Nilaparvata lugens [12], 100%.
